Reference: US6673555B1, “Methods of using SCAP antagonists” (SmithKline Beecham Corporation, priority 1999, dated 2004)

Experiments:
HepG2 cells = test: Uptake of Dil-LDL by HepG2 cells; assay type: cell-based; conditions: 0.5 μM, 24 hours, Dil-LDL 6 μg/ml for last 4 hours, FIG. 5
Description: To determine if activation of LDL-receptor promoter also translated into an increase in functional LDL receptors, an LDL uptake assay was set up. HepG2 cells seeded at 8 10^4 cells per 8 well Biocoat slides (Beckton Dickinson) were treated with SCAP antagonist or 25OH-cholesterol for 20h and then incubated with 6 μg/ml of fluorescent Dil-LDL for 4 hours. The amount of fluorescent dye that accumulated in the lysosomes was quantified by fluorescence microscopy using Axioplan-2 Zeiss microscope equipped with DXC950P video camera (Sony) and red fluorescence filters.
HepG2 cells were treated for 24 hours in the presence of 0.5 μM Example 1 or 10 μM 25OH-cholesterol. Dil-LDL (6 μg/ml) were added 4 hours before the end of the incubation. Cells were washed and observed by fluorescence microscopy using rhodamine filters and video camera with fixed settings.

[1] = system: golden Syrian hamster previously fed with a cholesterol rich diet; test: Lipoprotein cholesterol profile by gel filtration in cholesterol-fed hamsters (FIG. 7); assay type: in vivo; conditions: 5 mg/kg oral once a day for 3 days
Description: (§1) The in vivo activity of SCAP antagonist was determined in the golden Syrian hamster previously fed with a cholesterol rich diet. Male Syrian golden hamsters (Janvier, France) were kept on a 12 h light-dark cycle. Animals (7 weeks age, 150 g) were fed for 2 weeks with a high cholesterol diet containing 0.2% cholesterol plus 10% coconut oil. Animals (n=5 per group) were then treated orally with vehicle, (0.5% methylcellulose, 5% Tween 80) or Example 1 at 1, 5 or 20 mg/kg in the vehicle, once a day for 3 days.
(§2) 4h after the last treatment, animals were anesthetized, blood was collected and serum was prepared by centrifugation. Total cholesterol was determined using a enzymatic assay kit (Biomerieux, France). Lipoproteins were separated by ultracentrifugation using a single KBr concentration (density 1.063). Cholesterol and triglycerides associated with the upper phase (corresponding to VLDL +LDL lipoproteins) and cholesterol associated with the lower phase (corresponding to the HDL fraction) were determined using the enzymatic assays kits. Apolipoprotein B100 associated with VLDL and LDL lipoprotein fraction were analysed by SDS-PAGE and Coomassie blue staining. Lipoproteins were also separated by high-performance gel filtration chromatography with on-line colorimetric determination of cholesterol. Lipoprotein separation was performed on a single superose 6HR column (Pharmacia) with an elution buffer consisting of 10 mM tris, 1 mM EDTA and 150 mM NaCl adjusted at pH 7.4. Cholesterol was measured on line using the RTU enzymatic assay (Biomerieux). The column was calibrated using human lipoproteins and the various peaks in cholesterol profiles are designated VLDL, LDL and HDL for simplicity.
(§3) Cholesterol-fed animals were treated for 3 days with Example 1 at 1 and 20 mg/kg. […] In another experiment, lipoproteins were separated by gel filtration and cholesterol content was quantified on-line. As shown in FIG. 7 Example 1 at […] strongly reduces atherogenic particles: 79% reduction of VLDL cholesterol and 60% reduction of LDL-cholesterol.

[2] = system: golden Syrian hamster previously fed with a cholesterol rich diet; test: Lipoprotein and lipid in sera of cholesterol-fed hamsters (ultracentrifugation, enzymatic assays, SDS-PAGE); assay type: in vivo; conditions: for apoB100: VLDL and LDL fraction; for reduction of LDL-cholesterol / reduction of triglycerides: Table 1
Description: as §1, §2, §3

[3] = system: hamster LDL-receptor mRNA; test: LDL-receptor mRNA by real-time PCR in livers of cholesterol-fed hamsters; assay type: in vivo, Syrian golden hamster; conditions: 5 mg/kg oral once a day for 3 days, versus vehicle, FIG. 6
Description: as §1
4 hours after the last administration, animals were sacrificed and livers were immediately dropped into liquid nitrogen. Total RNA was extracted using RNAqous kit (Ambion) according to manufacturer instruction. […] The expression of the hamster LDL-receptor was determined using the following primers: SEQ ID NO: 12 […] and SEQ ID NO: 13 […]. […] Each sample was quantified in duplicates and the cycle threshold (Ct) were calculated. For each animal the difference between Ct values for the LDL-receptor and Ribosomal RNA were calculated. The quantity of LDL-receptor mRNA relative to Ribosomal RNA reference was calculated as 2^−ΔΔCt and expressed in arbitrary units.
Cholesterol-fed hamsters were treated with Example 1 (5 mg/kg) or vehicle for 3 days. LDL-receptor mRNA in the liver was quantified by real-time PCR using Ribosomal 18S RNA as internal reference.

[4] = 1 mg/kg oral once a day for 3 days
[5] = 1 mg/kg oral once a day for 3 days, serum 4h after last treatment
[6] = 20 mg/kg oral once a day for 3 days
[7] = 20 mg/kg oral once a day for 3 days, serum 4h after last treatment

CCOc1cc(CC)ccc1C1CCN(CCCCNC(=O)c2ccc(NC(=O)c3ccc(Cl)cc3)cc2)CC1 [Example 1, 4-(4-Chloro-benzoylamino)-N-{4-[4-(2-ethoxy-4-ethyl-phenyl)-piperidin-1-yl]-butyl}-benzamide]
melting point: 250 °C
LDL uptake (Dil-LDL fluorescence) (HepG2 cells): markedly increased the LDL uptake
increase of cholesterol contained in HDL particles [1]: 25%
reduction of LDL-cholesterol [1]: 60%
reduction of VLDL cholesterol [1]: 79%
CHOLESTEROL HDL chol, % of control [2, 4]: 123%
CHOLESTEROL LCLchol, % of control [2, 4]: 50%
CHOLESTEROL TOTAL, % of control [2, 4]: 79%
Triglycerides TOTAL, % of control [2, 4]: 37% (p < 0.001)
apoB100, % of control [2, 4]: 62% (p < 0.005)
apoB100 [2, 4]: 3.1 ± 0.4 S.U.
CHOLESTEROL HDL chol [2, 5]: 1.5 ± 0.1 g/L
CHOLESTEROL LCLchol [2, 5]: 0.95 ± 0.2 g/L
CHOLESTEROL TOTAL [2, 5]: 3.1 ± 0.3 g/L
Triglycerides TOTAL [2, 5]: 1.3 ± 0.2 g/L
reduction of LDL-cholesterol ([2]; 1 mg/kg, 3 days): 50%
reduction of triglycerides ([2]; 1 mg/kg, 3 days): 63%
CHOLESTEROL HDL chol, % of control [2, 6]: 113% NS
CHOLESTEROL LCLchol, % of control [2, 6]: 17%
CHOLESTEROL TOTAL, % of control [2, 6]: 55%
Triglycerides TOTAL, % of control [2, 6]: 24% (p < 0.001)
apoB100, % of control [2, 6]: 25% (p < 0.005)
apoB100 [2, 6]: 1.2 ± 0.2 S.U.
CHOLESTEROL LCLchol [2, 7]: 0.3 ± 0.1 g/L
CHOLESTEROL TOTAL [2, 7]: 2.1 ± 0.3 g/L
Triglycerides TOTAL [2, 7]: 0.8 ± 0.02 g/L
reduction of LDL-cholesterol ([2]; 20 mg/kg, 3 days): 83%
reduction of triglycerides ([2]; 20 mg/kg, 3 days): 76%
effect on Apolipoprotein B100 ([2]; 1 and 20 mg/kg, 3 days): reduced to the same extent
effect on HDL-cholesterol ([2]; 1 and 20 mg/kg, 3 days): unaffected
LDL-receptor mRNA in the liver [3]: increased mRNA for LDL-receptor
